Assay results as given in patent publication EP0989983B1 (SCHERING CORPORATION, priority 1997, dated 1998).
Where “and” joins values, the source holds several entries; their conditions need not be identical. Equal entries are not always repeated.

The compounds below were run against farnesyl protein transferase (Homo sapiens, UniProt P49354+P49356) (assay: FPT IC50, inhibition of farnesyl protein transferase, in vitro enzyme assay (procedure of WO 95/10516)). Conditions: several values in a cell are repeat determinations, read-out: FPT C50.
Format: biochemical
Protocol: FPT IC50 (inhibition of farnesyl protein transferase, in vitro enzyme assay). and COS Cell IC50 (Cell-Based Assay) were determined following the assay procedures described in WO 95/10516, published April 20, 1995. GGPT IC50 (inhibition of geranylgeranyl protein transferase, in vitro enzyme assay), Cell Mat Assay, and anti-tumor activity (in vivo anti-tumor studies) could be determined by the assay procedures described in WO 95/10516. The disclosure of WO 95/10516 is incorporated herein by reference thereto.

Question: Which IC50 does the source give for `COCC(=O)N1CCN(C2c3ncc(Br)cc3CCc3cc(Cl)cc(Br)c32)CC1C(=O)NCCCN1CCCC1=O` (stereo not drawn) [Compound 218] here?
Answer: 48 nM

Question: `O=C(NCCCN1CCCC1=O)C1CN(C2c3ncc(Br)cc3CCc3cc(Cl)cc(Br)c32)CCN1` (stereo not drawn) [Compound 216, 4-(3,10-DIBROMO-8-CHLORO-6,11-DIHYDRO-5H-BENZO[5,6] CYCLOHEPTA[1,2-b]PYRIDIN-11-YL)-N-[3-(2-OXO-1-PYRROLIDINYL)PROPYL]-2-PIPERAZINECARBOXAMIDE] was tested. Which IC50 did it give?
Answer: > 150 nM

Question: With `O=C(NCCc1c[nH]cn1)C1CN(C2c3ccc(Cl)cc3CCc3cc(Br)cnc32)CCN1C(=O)NC1CCCCC1` (stereo not drawn) [Compound 227] as the compound, how does the IC50 read?
Answer: 7.2 nM and 6.7 nM
